# Laboratory results from patent US20240287082A1, “NEW BENZODIAZEPINE DERIVATIVES AS GABA A GAMMA1 PAM” (Hoffmann-La Roche Inc., priority 2021, published 2024).
# Where two headings read alike, the source gives them in different places.
# What was measured:
# h-GABA-A α2β2γ1 = h-GABA-A α2β2γ1 (Homo sapiens (Human), UniProt P47869+Q8N1C3); experiment: Two-electrode voltage clamp electrophysiology in Xenopus oocytes expressing GABAA receptors, modulation of GABA EC20 current; assay type: cell-based; details: for Efficacy (GABA) %: % modulation of GABA EC20 = 100*(Fold increase−1), compound at 30-fold Ki α2β2γ1; for Fold increase h-GABA-A α2β2γ1 oocyte @ 30-fold Ki: Xenopus oocytes, GABA EC20, test compound at approx. 30-fold its Ki α2β2γ1; for potentiation of the GABA-induced current: α2β2γ1 GABAA receptor subtype expressing oocytes, reference PAMs
# Description: Xenopus laevis oocytes at maturation stages V-VI were used for the expression of cloned mRNA encoding GABAA receptor subunits. Oocytes ready for RNA micro-injection were bought from Ecocyte, Castrop-Rauxel, Germany and stored in modified Barth's medium (composition in mM: NaCl 88, KCl 1, NaHCO3 2.4, HEPES 10, MgSO4 0.82, CaNO3 0.33, CaCl2 0.33, pH=7.5) at 20° C. until the experiment.
# Oocytes were plated in 96-well plates for microinjection using the Roboinject automated instrument (MultiChannelSystems, Reutlingen, Germany). Approximately 50 nL of an aqueous solution containing the RNA transcripts for the subunits of the desired GABAA receptor subtype was injected into each oocyte. […] Oocytes were kept in modified Barth's medium (composition in mM: NaCl 88, KCl 1, NaHCO3 […], HEPES 10, MgSO4 0.82, CaNO3 0.33, CaCl2 0.33, pH=7.5) at 20° C. until the experiment.
# Electrophysiological experiments were performed using the Roboocyte instrument (MultiChannelSystems, Reutlingen, Germany) on days 3 to 5 after the micro-injection of mRNA. During the experiment the oocytes were constantly superfused by a solution containing (in mM) NaCl 90, KCl 1, HEPES 5, MgCl2 1, CaCl2 1 (pH 7.4). Oocytes were impaled by two glass microelectrodes (resistance: 0.5-0.8 MΩ) which were filled with a solution containing KCl 1M+K-acetate 1.5 M and voltage-clamped to −80 mV. The recordings were performed at room temperature using the Roboocyte two-electrode voltage clamp system (Multichannelsystem). After an initial equilibration period of 1.5 min GABA was added for 1.5 min at a concentration evoking approximately 20% of a maximal current response (EC20). After another rest interval of 2.5 min GABA was again added evoking a response of similar amplitude and shape. […] Current traces were recorded at a digitization rate of 10 Hz during and shortly before and after the GABA application.
# Each compound and concentration was tested on at least 3 oocytes. Different oocytes were used for different compound concentrations.
# For the analysis, the digitized current traces of the first and second GABA response were superimposed and, if necessary, rescaled to equal maximal amplitudes. The ratio between the two responses during the time interval of test compound application was calculated point by point. The extremum of the resulting “ratio trace” was taken as the efficacy (“Fold increase”) of the compound expressed as “% modulation of GABA EC20” (100*(Fold increase−1)).
# [1] = target: human GABAA α1β3γ2 receptor (Homo sapiens (Human), UniProt P14867+P18507); experiment: Radioligand binding assay, competition for [3H]Flumazenil, γ2-containing GABAA subtype α1β3γ2
# Description: The affinity of compounds at GABAA γ2 subunit-containing receptors was measured by competition for [^3H]Flumazenil (81.1 Ci/mmol; Roche) binding to HEK293F cells expressing human (transiently transfected) receptors of composition α1β3γ2.
# Harvested pellets from HEK293F cells expressing the different GABAA γ2 receptor subtypes were resuspended in Mannitol Buffer pH 7.2-7.4 and processed as described above for the cells expressing the GABAA γ1 subunit-containing receptors.
# Assays were incubated to equilibrium for 1 hour at 4° C. and harvested onto GF/C uni-filters (Packard) by filtration using a Packard harvester and washing with ice-cold wash buffer (50 mM Tris; pH 7.5). After anhydrousing, filter-retained radioactivity was detected by liquid scintillation counting. Ki values were calculated using Excel-Fit (Microsoft) and are the means of two determinations.
# [2] = target: human GABAA α2β2γ1 receptor (Homo sapiens (Human), UniProt P47869+Q8N1C3); experiment: Radioligand binding assay, competition for [3H]RO7239181, γ1-containing GABAA subtype α2β2γ1; details: for γ2/γ1 Selectivity Ratio: Ki α1β3γ2 (nM)/Ki α2β2γ1 (nM); for LogSel: Log[Ki α1β3γ2 (nM)/Ki α2β2γ1 (nM)]
# Description: (§1) The affinity of compounds at GABAA γ1 subunit-containing receptors was measured by competition for [^3H]RO7239181 (67.3 Ci/mmol; Roche) binding to membranes from HEK293F cells (ThermoFisher R^79007) expressing human (transiently transfected) receptors of composition α5β2γ1, α2β2γ1, α1β2γ1.
# (§2) Harvested pellets from HEK293F cells expressing the different GABAA receptor subtypes were resuspended in Mannitol Buffer pH 7.2-7.4 (Mannitol 0.29M, Triethylamine 10 mM, Acetic acid 10 mM, EDTA 1 mM plus protease inhibitors (20 tablets Complete, Roche Diagnostics Cat. No. 05 056 489 001 per liter)), washed two times and then resuspended at 1:10 to 1:15 dilution in the same buffer. Cell disruption was performed by stirring the suspension in a Parr vessel #4637 at 435 psi for 15 minutes, and then the suspensions were centrifuged at 1000×g for 15 minutes at 4° C. (Beckman Avanti J-HC: rotor JS-4.2). The supernatant (S1) was transferred in a 21 Schott flask and the pellet (P1) was resuspended with Mannitol Buffer up to 175 ml. The resuspended pellet was transferred into a 250 ml Corning centrifugal beaker and centrifuged at 1500×g for 10 minutes at 4° C. (Beckman Avanti J-HC: rotor JS-4.2). The supernatant (S1) was then transferred in the 21 Schott flask and the pellet was discarded. The supernatants (S1) were centrifuged in 500 ml Beckman polypropylene centrifugal beaker at 15 000×g for 30 minutes at 4° C. (Beckman Avanti J-20 XP: rotor JLA-10.500). The pellet (P2) was resuspended with Mannitol Buffer 1:1 and frozen at −80° C. The supernatant (S2) was centrifuged in 100 ml Beckman polypropylene centrifugal tubes at 48000×g for 50 minutes at 4° C. (Beckman Avanti J-20 XP: rotor JA-18). The supernatant (S3) was discarded and the pellet (P3) was resuspended with 1:1 Mannitol Buffer. The P2 and P3 protein concentration was determined with the BIORAD Standard assay method with bovine serum albumin as standard and measured on the NANO-Drop 1000. The membrane suspension was aliquots (500 μl per tube) and stored at −80° C. until required.
# (§3) Membrane homogenates were resuspended and polytronised (Polytron PT1200E Kinematica AG) in Potassium Phosphate 10 mM, KCl 100 mM binding buffer at pH 7.4 to a final assay concentration determined with a previous experiment.
# (§4) Assays were incubated to equilibrium for 1 hour at 4° C. and then, membranes were filtered onto unifilter (96-well white microplate with bonded GF/C filters preincubated 20-50 minutes in 0.3% Polyethylenimine) with a Filtermate 196 harvester (Packard BioScience) and washed 4 times with cold Potassium Phosphate 10 mM pH 7.4, KCl 100 mM binding buffer. After anhydrousing, filter-retained radioactivity was detected by liquid scintillation counting. Ki values were calculated using Excel-Fit (Microsoft) and are the means of two determinations.
# [3] = target: human GABAA α5β2γ1 receptor (Homo sapiens (Human), UniProt P31644+Q8N1C3); experiment: Radioligand binding assay, competition for [3H]RO7239181, γ1-containing GABAA subtype α5β2γ1
# Description: as §1, with “α1β2γ1. For better protein expression of the α2 subunit-containing receptors, the 28 amino acid long signal peptide (Met1 to Ala28)of the human GABAA α2 subunit was substituted by the 31 amino acid long signal peptide (Met1 to Ser31) of human GABAA α5 subunit.” for “α1β2γ1.”
# as §2, §3
# as §4, with “Radioligand binding assays were carried out in a volume of 200 μL (96-well plates) which contained 100 μL of cell membranes, [3H]RO7239181 at a concentration of 1.5 nM (α5β2γ1) or 20-30 nM (α1β2γ1, α2β2γ1) and the test compound in the range of [0.3-1000]×10^−9 M. Nonspecific binding was defined by 10×10^−6 (α5β2γ1) and 30×10^−6 M RO7239181 and typically represented less than 5% (α5β2γ1) and less than 20% (α1β2γ1, α2β2γ1) of the total binding. Assays” for “Assays”
# [4] = read-out: Ki h-GABAA α2β2γ1, Table 2, membranes of HEK293F cells, [3H]RO7239181
Structure (SMILES),Efficacy (GABA) % (h-GABA-A α2β2γ1) [%],Fold increase h-GABA-A α2β2γ1 oocyte @ 30-fold Ki (h-GABA-A α2β2γ1),Ki [1] [nM],Ki [2] [nM],γ2/γ1 Selectivity Ratio [2],LogSel [2],"Ki [2, 4] [nM]",Ki [3] [nM],potentiation of the GABA-induced current (h-GABA-A α2β2γ1) [%],LogSel ([2]; Table 3),γ2/γ1 Selectivity Ratio ([2]; Table 3)
"C[C@@H]1N=C(c2c(F)cccc2F)c2c(ccc(Cl)c2Br)-n2ccc(=O)nc21 [Example 6, (5S)-8-bromo-9-chloro-7-(2,6-difluorophenyl)-5-methyl-5H-pyrimido[1,2-a][1,4]benzodiazepin-3-one]",121,2.21,1780,49.9,35.7,1.55,49.9,4.8,–,–,–
"C[C@@H]1N=C(c2c(F)cccc2F)c2c(ccc(Br)c2Cl)-n2cc(Br)c(=O)nc21 [Example 16, (5S)-2,9-dibromo-8-chloro-7-(2,6-difluorophenyl)-5-methyl-5H-pyrimido[1,2-a][1,4]benzodiazepin-3-one]",71,1.71,1570,8.3,188.0,2.27,–,1.6,–,–,–
"Cc1ncc2n1-c1ccc(Cl)cc1C(c1ccccc1F)=NC2 [Midazolam, reference compound]",–,–,–,–,–,–,–,–,~60,−2.2,–
"Cc1ccc2c(c1Cl)C(c1c(F)cccc1F)=N[C@@H](C)c1nc(=O)c(C)cn1-2 [Example 8, (5S)-8-chloro-7-(2,6-difluorophenyl)-2,5,9-trimethyl-5H-pyrimido[1,2-a][1,4]benzodiazepin-3-one]",115,2.15,1240,37.7,32.7,1.51,37.7,2,–,–,–
"O=c1nc2n(cc1Br)-c1ccc(Br)c(Cl)c1C(c1c(F)cccc1F)=NC2 [Example 15, 2,9-dibromo-8-chloro-7-(2,6-difluorophenyl)-5H-pyrimido[1,2-a][1,4]benzodiazepin-3-one]",69,1.69,1970,8,244.8,2.39,8,0.8,–,–,–
"CN1C(=O)CN=C(c2ccccc2F)c2cc([N+](=O)[O-])ccc21 [Flunitrazepam, reference compound]",–,–,–,–,–,–,–,–,~60,–,–
"C[C@@H]1N=C(c2c(F)cccc2F)c2c(ccc(Cl)c2Br)-n2cc(Br)c(=O)nc21 [Example 23, (5S)-2,8-dibromo-9-chloro-7-(2,6-difluorophenyl)-5-methyl-5H-pyrimido[1,2-a][1,4]benzodiazepin-3-one]",107,2.07,3000,74.1,40.5,1.61,74.1,6.8,–,–,–
"O=c1ccn2c(n1)CN=C(c1ccccc1F)c1cc(Cl)ccc1-2 [RE-A, 9-chloro-7-(2-fluorophenyl)-5H-pyrimido[1,2-a][1,4]benzodiazepin-3-one, reference compound]",–,–,27.8,123,–,–,–,–,–,−0.64,0.23
"Cc1nnc2n1-c1ccc(Cl)cc1C(c1ccccc1)=NC2 [Alprazolam, reference compound]",–,–,–,–,–,–,–,–,–,−2.3,–
"O=c1nc2n(cc1Br)-c1ccc(Cl)c(Cl)c1C(c1c(F)cccc1F)=NC2 [Example 5, 2-bromo-8,9-dichloro-7-(2,6-difluorophenyl)-5H-pyrimido[1,2-a][1,4]benzodiazepin-3-one]",78,1.78,2020,10.6,190.6,2.28,10.6,1.4,–,–,–
"Cc1nnc2n1-c1ccc(Cl)cc1C(c1ccccc1Cl)=NC2 [Triazolam, reference compound]",–,–,–,–,–,–,–,–,~60,−1.5,–
